# Like-named read-outs stand apart in the source and are kept apart here.
# Assays:
# [1] = Thermogravimetric analysis (TGA), degradation; format: physicochemical
# Procedure: The TGA profile of Form I is shown in the top panel of FIG. 12 with the heat-flow profile in the middle panel of FIG. 12, and the first derivative of the TGA profile in the bottom pane of FIG. 12. […] A weight loss of 0.2% was detected between 140° C. and 180° C., potentially ascribable to solvent release. Degradation of Form I took place above 270° C. The heat-flow profile included two main peaks around 50° C. and 160° C. The first derivative of the TGA profile indicated a greatest decline in the TGA profile occurred around 400° C., and that weight loss occurred around 320° C.
# [2] = Mechanical stability: grinding and kneading by ball milling (XRPD); format: physicochemical
# Procedure: Stability tests were performed on mixtures of Form I and Form IV; Form I and Form VII; and Form I, Form IV, and Form VII. In a first mechanical stability test, the polymorphs were analyzed by XRPD following 10 minutes of grinding by ball milling at 30 Hz. In a second mechanical stability test, the polymorphs were analyzed by XRPD following 10 minutes of kneading by ball milling at 30 Hz in the presence of a catalytic amount of 2-propanol (2 μl).
# [3] = Thermal treatment of Form IV at 90° C. and 50 mbar (XRPD); format: physicochemical
# Procedure: To confirm the DSC results, Form IV deterioration was subject to thermal treatment by incubation for 1 hour at 90° C. and 50 mbar, storage for 18 hours at room temperature, and a second incubation for 3.5 hours 90° C. and 50 mbar. XRPD analysis was performed on the sample following the 1 hour incubation at 90° C. and 50 mbar, after the 18 hours of storage at room temperature, and after the final 3.5 hour incubation 90° C. and 50 mbar.
# [4] = Stability at various temperatures and relative humidities, seven days (XRPD); format: physicochemical; settings: 7 days
# Procedure: The stabilities of the polymorphs were also assessed at various temperatures and relative humidities. These analyses were performed by storing 20 mg of polymorph samples for seven days at: (1) 25° C. and 100% relative humidity, (2) 40° C. and 75% relative humidity, (3) 25° C. and 60% relative humidity, and (4) at 60° C. and 75% relative humidity. XRPD was collected on the samples following these incubations and compared to XRPD of the samples prior to storage.
# [5] = Storage stability of polymorphic forms at room temperature in a sealed vial (XRPD time course); format: physicochemical; settings: room temperature
# Procedure: Form I samples were collected for XR-PD analysis following 0, 7, and 42 days of storage, the results of which are shown in FIG. 10.
# The stability of polymorphic Form IV was evaluated over 7 days of storage at room temperature in a sealed vial. Portions of the Form IV samples were collected for XRPD analysis following 0 (Form IV), 3 (Form IV-3D3-storage), and 7 days (Form IV-7D3-storage) of storage, the results of which are shown in FIG. 14.
# The stability of polymorphic Form IV was also evaluated following crystallization from a room temperature 2-propanol/THF 95/5 (v/v) solvent system containing 40 mg/ml (Z)-endoxifen. XPRD was collected immediately after recovery and following 15 days storage at room temperature in a sealed vial. FIG. 15 provides the resultant XRPD patterns following 15 days storage (Form IV-2PR/THF-15D-storage) and 0 days storage (Form IV-2PR/THF-0D-storage), as well as an XRPD spectrum of Form IV (Form IV) obtained from 2-propanol recrystallization.
# Since the room temperature evaporation in acetone yielded a mixture of polymorphic Form I and Form IV XRPD patterns with a very intense unassigned signal at 16.1° 2θ, the sample was re-measured following 7 days storage in a sealed vial. From top to bottom, FIG. 16 provides XRPD patterns of the acetone-generated polymorphs following 7 (EVRT-ACT-7D-storage) and 0 days of storage (EVRT-ACT-0D-storage), a Form IV spectrum (Form IV), and a Form I (Form I) spectrum, respectively.
# Form XVII was further assessed after 3 days storage in a sealed vial at room temperature.
# Form XVIII was further reassessed by XRPD following 3 and 7 days storage at room temperature in a sealed vial. The data from these analyses are summarized in FIG. 24, which (from top to bottom) provides the sample following 7 days storage (Form XVIII-7D-storage), the sample following 3 days storage (Form XVIII-3D-storage), and the sample immediately following crystallization (Form XVIII).
# Form XIX room temperature stability was evaluated with XRPD. XRPD of a Form XIX sample immediately following crystallization (Form XIX) and following 7 days of storage (Form XIX-7D-storage) are shown in FIG. 26.
# The stability of polymorphic Form V was over 10 days of storage at room temperature in a sealed vial. XR-PD was performed following 0, 3, and 10 days storage.
# To evaluate Form VI stability, XRPD spectra of a Form VI sample were collected following 0, 3, and 14 days of room temperature storage in a sealed vial. The resulting XRPD patterns of the sample following 0 (Form VI), 3 (Form VI-3D-storage), and 14 days storage (Form VI-14D-storage) are shown in FIG. 30.
# The stability of polymorphic Form VII was evaluated over 7 days of storage at room temperature in a sealed vial. Portions of the Form VII samples were collected for XRPD analysis over 7 days of storage, the results of which are shown in FIG. 32.
# Form VIII stability over 7 days storage in a sealed vial at room temperature was evaluated with XRPD.
# The stability of Form IX generated by precipitation from an ethyl acetate/heptane solvent system (Form IX Recrystallization (1)) was evaluated over 7 days of storage at room temperature. Portions of the Form IX sample were collected following 0 and 7 days of storage in a sealed vial and analyzed by XRPD analysis to identify possible changes in the polymorph.
# Form IX stability was separately characterized for crystals generated through the addition of (Z)-endoxifen saturated ethyl acetate to heptane (Form IX Recrystallization (2)), which yielded higher crystallinity Form IX than was afforded by heptane addition to (Z)-endoxifen saturated ethyl acetate.
# Form IX stability was further evaluated for crystals generated by precipitation from an acetone/butyl methyl ether (acetone/BME) solvent/antisolvent mixture (Form IX Recrystallization (4)). Portions of the Form IX sample were collected following 0 and 5 days of storage in a sealed vial at room temperature and compared to reference XRPD patterns of Forms VII and IX. […]
# [6] = Slurries with amorphous (Z)-endoxifen (XRPD); format: physicochemical; settings: for Polymorphic form recovered (XRPD): 22 days stirring at room temperature
# Procedure: Further slurry experiments were performed utilizing amorphous (Z)-endoxifen as an input. 20 mg of amorphous (Z)-endoxifen was suspended in 200 μl of various solvent mixtures. Following 22 days of stirring at room temperature, solid (Z)-endoxifen was recovered from the slurries during centrifugation at 4000 rpm for 3 minutes with a nylon filter (0.22 μm).
# [7] = cited from earlier work
compound,measurement,setting,value
"CC/C(=C(\c1ccc(O)cc1)c1ccc(OCCNC)cc1)c1ccccc1 [Form IV, (Z)-endoxifen]",Degradation temperature (TGA),[1],above 270 °C
same,Degradation temperature (TGA),[1]; sample from scaled-up crystallization,above 270 °C
same,XRPD pattern after mechanical grinding,[2]; 10 minutes ball milling at 30 Hz,Form I with a mild signal at 4.8° 20 ascribable to Form IV
same,XRPD pattern after kneading,[2]; 10 minutes ball milling at 30 Hz with catalytic 2-propanol (2 μl),mixture of Form I and Form IV
same,XRPD pattern after thermal treatment,[3]; after 1 hour at 90° C. and 50 mbar,Form IV with traces of Form I
same,XRPD pattern after thermal treatment,[3]; after final 3.5 hour treatment at 90° C. and 50 mbar (following 1 hour at 90° C. and 18 hours at room temperature),Form IV with traces of Form I
same,XRPD pattern after storage,[4]; 25° C. and 100% relative humidity,Form I with trace of Form IV
same,XRPD pattern after storage,[4]; 40° C. and 75% relative humidity,Form I with minor traces of Form IV
same,XRPD change on storage,"[5]; 7 days, sealed vial",stable under ambient conditions
same,XRPD change on storage,"[5]; 15 days, sealed vial, sample crystallized from 2-propanol/THF 95/5 (v/v)","maintained a Form IV XRPD pattern following 15 days storage, its XRPD spectrum also exhibited a new signal at 16.1° 2θ"
"CC/C(=C(\c1ccc(O)cc1)c1ccc(OCCNC)cc1)c1ccccc1 [amorphous (Z)-endoxifen, (Z)-endoxifen]",Output Main phase [phase],"[6]; SLRT: acetone/tetrahydrofuran 90/10, 100 mg/mL, RT, 22 d, amorphous input",Form I
same,Polymorphic form recovered (XRPD),[6]; acetone/tetrahydrofuran slurry,Form I with additional unassigned peaks
same,Polymorphic form recovered (XRPD),[6]; ethyl acetate/heptane slurry,Form IX
same,Polymorphic form recovered (XRPD),[6]; one of the 2-propanol/tetrahydrofuran slurries,Form IV
same,XRPD change on storage,[5]; 18 days,stable and does not convert into other polymorphic forms
"CC/C(=C(\c1ccccc1)c1ccc(OCCN(C)C)cc1)c1ccccc1 [tamoxifen, (Z)-2-[4-(1,2-diphenyl-1-butenyl)phenoxy]-N,N-dimethylethanamine]",Terminal elimination half-life,[7]; in vivo,5 to 7 days
same,Peak concentration time,[7]; post-dose,approximately 5 hours
same,Reported therapeutic levels of plasma tamoxifen,[7]; subjects dosed with 20 mg of oral tamoxifen,≥ 30 nM

# — US20250066286A1, “COMPOSITIONS OF (Z)-ENDOXIFEN AND METHODS OF ENRICHMENT THEREOF” (Atossa Therapeutics, Inc., priority 2022, published 2025)
